Measured values published in the supplement of paper PMC10307832.

Tests used:
Test in all cases: relative viability (nuclei count vs DMSO), 5 days (fraction); higher = more cells survive
Everolimus + Phenformin = compound: CO[C@H]1C[C@@H]2CC[C@@H](C)[C@@](O)(O2)C(=O)C(=O)N2CCCC[C@H]2C(=O)O[C@H]([C@H](C)C[C@@H]2CC[C@@H](OCCO)[C@H](OC)C2)CC(=O)[C@H](C)/C=C(\C)[C@@H](O)[C@@H](OC)C(=O)[C@H](C)C[C@H](C)/C=C/C=C/C=C/1C [Everolimus] + N=C(N)NC(=N)NCCc1ccccc1 [Phenformin] (partner 250 µM)
In short: (§1)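 Lung cancer cell lines were seeded in 1536-well plates and dosed by pin tool the next day, with either a single drug or a fixed anchor-drug dose combined with five library-drug doses (not always all listed) spaced in √10 steps. Five days later, one step fixed the cells and stained their nuclei (final 0.05% Triton X-100, 1% formaldehyde, 1 ug/ml Hoechst), and nuclei were counted on 4× images. Relative viability is the nuclei count in treated wells divided by the count in vehicle wells, and each value is the median of duplicate plates.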

Everolimus + Pictilisib = compound: CO[C@H]1C[C@@H]2CC[C@@H](C)[C@@](O)(O2)C(=O)C(=O)N2CCCC[C@H]2C(=O)O[C@H]([C@H](C)C[C@@H]2CC[C@@H](OCCO)[C@H](OC)C2)CC(=O)[C@H](C)/C=C(\C)[C@@H](O)[C@@H](OC)C(=O)[C@H](C)C[C@H](C)/C=C/C=C/C=C/1C [Everolimus] + CS(=O)(=O)N1CCN(Cc2cc3nc(-c4cccc5[nH]ncc45)nc(N4CCOCC4)c3s2)CC1 [Pictilisib] (partner 1 µM)
In short: as §1

Everolimus + Palbociclib = compound: CO[C@H]1C[C@@H]2CC[C@@H](C)[C@@](O)(O2)C(=O)C(=O)N2CCCC[C@H]2C(=O)O[C@H]([C@H](C)C[C@@H]2CC[C@@H](OCCO)[C@H](OC)C2)CC(=O)[C@H](C)/C=C(\C)[C@@H](O)[C@@H](OC)C(=O)[C@H](C)C[C@H](C)/C=C/C=C/C=C/1C [Everolimus] + CC(=O)c1c(C)c2cnc(Nc3ccc(N4CCNCC4)cn3)nc2n(C2CCCC2)c1=O [Palbociclib] (partner 0.5 µM)
In short: as §1

Everolimus + Decitabine = compound: CO[C@H]1C[C@@H]2CC[C@@H](C)[C@@](O)(O2)C(=O)C(=O)N2CCCC[C@H]2C(=O)O[C@H]([C@H](C)C[C@@H]2CC[C@@H](OCCO)[C@H](OC)C2)CC(=O)[C@H](C)/C=C(\C)[C@@H](O)[C@@H](OC)C(=O)[C@H](C)C[C@H](C)/C=C/C=C/C=C/1C [Everolimus] + Nc1ncn([C@H]2C[C@H](O)[C@@H](CO)O2)c(=O)n1 [Decitabine] (partner 2 µM)
In short: as §1

Row | Cell Line | relative viability (Everolimus + Phenformin; first compound 0.01 µM) | relative viability (Everolimus + Phenformin; first compound 0.03162 µM) | relative viability (Everolimus + Phenformin; first compound 0.1 µM) | relative viability (Everolimus + Phenformin; first compound 0.3162 µM) | relative viability (Everolimus + Phenformin; first compound 1 µM) | relative viability (Everolimus + Pictilisib; first compound 0.01 µM) | relative viability (Everolimus + Pictilisib; first compound 0.03162 µM) | relative viability (Everolimus + Pictilisib; first compound 0.1 µM) | relative viability (Everolimus + Pictilisib; first compound 0.3162 µM) | relative viability (Everolimus + Pictilisib; first compound 1 µM) | relative viability (Everolimus + Palbociclib; first compound 0.01 µM) | relative viability (Everolimus + Palbociclib; first compound 0.03162 µM) | relative viability (Everolimus + Palbociclib; first compound 0.1 µM) | relative viability (Everolimus + Palbociclib; first compound 0.3162 µM) | relative viability (Everolimus + Palbociclib; first compound 1 µM) | relative viability (Everolimus + Decitabine; first compound 0.01 µM) | relative viability (Everolimus + Decitabine; first compound 0.03162 µM) | relative viability (Everolimus + Decitabine; first compound 0.1 µM) | relative viability (Everolimus + Decitabine; first compound 0.3162 µM) | relative viability (Everolimus + Decitabine; first compound 1 µM)
1 | UMC-11 | 0.281 | 0.249 | 0.261 | 0.294 | 0.269 | 0.292 | 0.273 | 0.28 | 0.299 | 0.324 | 0.261 | 0.262 | 0.282 | 0.3 | 0.272 | 0.329 | 0.359 | 0.352 | 0.367 | 0.392
2 | ABC-1 | 0.223 | 0.249 | 0.21 | 0.203 | 0.264 | 0.389 | 0.371 | 0.413 | 0.542 | 0.557 | 0.468 |  | 0.43 |  | 0.598 | 0.637 |  | 0.603 |  | 0.883
3 | A-427 | 0.281 | 0.357 | 0.278 | 0.254 | 0.289 | 0.488 | 0.524 | 0.445 | 0.491 | 0.542 | 0.474 | 0.546 | 0.445 | 0.48 | 0.557 | 0.436 | 0.509 | 0.45 | 0.486 | 0.561
4 | LCLC-97TM1 | 0.46 | 0.513 | 0.483 | 0.353 | 0.437 | 0.126 | 0.123 | 0.128 | 0.135 | 0.144 | 0.225 | 0.217 | 0.159 | 0.164 | 0.173 | 0.197 | 0.205 | 0.184 | 0.208 | 0.218
5 | HCC-15 | 0.465 | 0.474 | 0.459 | 0.497 | 0.471 | 0.633 | 0.517 | 0.372 | 0.539 | 0.545 | 0.73 | 0.79 | 0.627 | 0.697 | 0.76 | 0.597 | 0.463 | 0.511 | 0.604 | 0.482
6 | NCI-H647 | 0.317 | 0.395 | 0.338 | 0.36 | 0.537 | 0.261 | 0.299 | 0.215 | 0.213 | 0.256 | 0.194 | 0.231 | 0.159 | 0.137 | 0.219 | 0.16 | 0.157 | 0.101 | 0.0533 | 0.158
7 | SW 1573 | 0.205 | 0.238 | 0.175 | 0.182 | 0.12 | 0.303 | 0.341 | 0.28 | 0.304 | 0.249 | 0.237 | 0.201 | 0.175 | 0.224 | 0.225 | 0.268 | 0.331 | 0.298 | 0.306 | 0.338
8 | NCI-H1651 | 0.284 | 0.297 | 0.255 | 0.265 | 0.4 | 0.368 | 0.324 | 0.352 | 0.427 | 0.39 | 0.474 | 0.405 | 0.363 | 0.351 | 0.341 | 0.532 | 0.383 | 0.464 | 0.489 | 0.484
9 | NCI-H1792 | 0.154 | 0.129 | 0.162 | 0.129 | 0.0809 | 0.189 | 0.14 | 0.121 | 0.148 | 0.105 | 0.776 | 0.518 | 0.448 | 0.464 | 0.376 | 0.396 | 0.338 | 0.249 | 0.276 | 0.199
10 | NCI-H2023 | 0.309 | 0.375 | 0.343 | 0.277 | 0.266 | 0.164 | 0.144 | 0.135 | 0.174 | 0.111 | 0.176 | 0.139 | 0.151 | 0.129 | 0.129 | 0.204 | 0.21 | 0.198 | 0.199 | 0.168
11 | COR-L 105 | 0.356 | 0.387 | 0.388 | 0.435 | 0.361 | 0.331 | 0.376 | 0.295 | 0.368 | 0.313 | 0.465 | 0.368 | 0.365 | 0.344 | 0.343 | 0.516 | 0.529 | 0.522 | 0.502 | 0.548
12 | NCI-H1734 | 0.306 | 0.324 | 0.249 | 0.31 | 0.35 | 0.285 | 0.341 | 0.259 | 0.316 | 0.336 | 0.285 | 0.241 | 0.288 | 0.251 | 0.258 | 0.422 | 0.397 | 0.351 | 0.371 | 0.367
13 | NCI-H3122 | 0.368 | 0.45 | 0.391 | 0.37 | 0.402 | 0.364 | 0.421 | 0.288 | 0.372 | 0.348 | 0.166 | 0.178 | 0.169 | 0.17 | 0.133 | 0.267 | 0.253 | 0.213 | 0.215 | 0.203
14 | HCC-78 | 0.504 | 0.462 | 0.451 | 0.564 | 0.626 | 0.193 | 0.19 | 0.201 | 0.185 | 0.16 | 0.477 | 0.489 | 0.513 | 0.485 | 0.379 | 0.593 | 0.605 | 0.636 | 0.643 | 0.603
15 | NCI-H2085 | 0.573 | 0.559 | 0.395 | 0.503 | 0.521 | 0.346 | 0.358 | 0.368 | 0.348 | 0.377 | 0.413 | 0.362 | 0.347 | 0.335 | 0.284 | 0.508 | 0.536 | 0.483 | 0.478 | 0.395
